Experimental data reported in the supplement of paper PMC10307832.

What was measured:
Experiment in all cases: relative viability (nuclei count vs DMSO), 5 days (fraction); higher = more cells survive
[1] = compound: COc1cccc2cc(-c3nc([C@H]4CC[C@H](C(=O)O)CC4)n4ncnc(N)c34)[nH]c12 [OSI-027] + O=C(c1cc(Cc2n[nH]c(=O)c3ccccc23)ccc1F)N1CCN(C(=O)C2CC2)CC1 [Olaparib] (partner 8 µM)
Outline: (§1)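 Lung cancer cell lines were seeded in 1536-well plates and dosed by pin tool the next day, with either a single drug or a fixed anchor-drug dose combined with five library-drug doses (not always all listed) spaced in √10 steps. Five days later, one step fixed the cells and stained their nuclei (final 0.05% Triton X-100, 1% formaldehyde, 1 ug/ml Hoechst), and nuclei were counted on 4× images. Relative viability is the nuclei count in treated wells divided by the count in vehicle wells, and each value is the median of duplicate plates.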

[2] = compound: Cc1nc(NC(=O)N2CCC[C@H]2C(N)=O)sc1-c1ccnc(C(C)(C)C(F)(F)F)c1 [Alpelisib] + C[C@@H](Oc1cc(-c2cnn(C3CCNCC3)c2)cnc1N)c1c(Cl)ccc(F)c1Cl [Crizotinib] (partner 1 µM)
Outline: as §1

[3] = compound: CCCS(=O)(=O)Nc1ccc(F)c(C(=O)c2c[nH]c3ncc(-c4ccc(Cl)cc4)cc23)c1F [Vemurafenib] + Cc1nc(NC(=O)N2CCC[C@H]2C(N)=O)sc1-c1ccnc(C(C)(C)C(F)(F)F)c1 [Alpelisib] (partner 2 µM)
Outline: as §1

[4] = compound: COc1cccc2cc(-c3nc([C@H]4CC[C@H](C(=O)O)CC4)n4ncnc(N)c34)[nH]c12 [OSI-027] + Cc1cc(Nc2cc(N3CCN(C)CC3)nc(Sc3ccc(NC(=O)C4CC4)cc3)n2)n[nH]1 [Tozasertib] (partner 0.1 µM)
Outline: as §1

Cell Line	relative viability ([1]; first compound 0.01 µM)	relative viability ([1]; first compound 0.03162 µM)	relative viability ([1]; first compound 0.1 µM)	relative viability ([1]; first compound 0.3162 µM)	relative viability ([1]; first compound 1 µM)	relative viability ([2]; first compound 0.04 µM)	relative viability ([2]; first compound 0.1265 µM)	relative viability ([2]; first compound 0.4 µM)	relative viability ([2]; first compound 1.265 µM)	relative viability ([2]; first compound 4 µM)	relative viability ([3]; first compound 0.03162 µM)	relative viability ([3]; first compound 0.1 µM)	relative viability ([3]; first compound 0.3162 µM)	relative viability ([3]; first compound 1 µM)	relative viability ([4]; first compound 0.01 µM)	relative viability ([4]; first compound 0.03162 µM)	relative viability ([4]; first compound 0.1 µM)	relative viability ([4]; first compound 0.3162 µM)	relative viability ([4]; first compound 1 µM)
NCI-H650	0.406	0.38	0.364	0.337	0.219	0.737	0.693	0.88	0.478	0.546	0.954	1.12	0.621	0.781	0.711	0.738	0.637	0.605	0.411
NCI-H2170	0.664	0.592	0.604	0.525	0.346	1.08	1.17	1.23	0.729	0.71	0.735	0.301	0.692	0.712	0.71	0.658	0.603	0.733	0.435
HCC-366	0.331	0.386	0.417	0.386	0.219	0.488	0.459	0.585	0.215	0.0795	0.417	0.391		0.379	0.13	0.113	0.0867	0.128	0.0744
EKVX	0.659	0.935	0.88	0.832	0.516	0.956	0.918	1.06	0.749	0.619	0.821		0.904	0.777	0.299	0.358	0.406	0.349	0.269
NCI-H1734	0.656	0.597	0.599	0.566	0.401	0.633	0.605	0.715	0.506	0.382	0.598	0.7	0.602	0.603	0.299	0.271	0.265	0.222	0.24
CAL-12T	0.751	0.749	0.777	0.53	0.335	0.66	0.53	0.711	0.556	0.596	1.07	1.21	1.4	1.33	0.377	0.287	0.317	0.294	0.212
NCI-H2347	0.599	0.536	0.598	0.492	0.344	0.674	0.897	0.859	0.603	0.61	1.01	1.02	0.757	1.04	0.362	0.467	0.58	0.564	0.317
SK-MES-1	0.62	0.605	0.532	0.417	0.285	1.03	0.875	0.968	0.83	0.67	0.829	0.574	0.723	0.776	0.923	0.842	0.807	0.744	0.402
NCI-H3122	0.759	0.604	0.682	0.647	0.407	0.27	0.308	0.227	0.196	0.2	0.814	0.761	0.896	0.862	0.542	0.38	0.385	0.434	0.287
NCI-H23	0.339	0.341	0.3	0.141	0.188	0.565	0.497	0.425	0.428	0.432	0.626	0.642	0.912	0.664	0.636	0.269	0.34	0.413	0.306
ABC-1	0.667	0.686	0.795	0.859	0.404	1.19	1.28	1.04	0.886	0.713	0.916	0.878	1.25	1.14	0.197	0.179	0.203	0.167	0.206
NCI-H2228	0.952	0.644	0.562	0.474	0.226	0.514	0.402	0.403	0.303	0.304	0.964	0.752	0.905	0.627	0.246	0.242	0.242	0.207	0.16
HCC-15	0.799	0.745	0.729	0.683	0.397	0.814	0.798	0.901	0.668	0.651	0.864	0.892	0.874	0.881	0.458	0.4	0.429	0.414	0.266
NCI-H358	0.708	0.546	0.579	0.572	0.422	0.785	0.534	0.725	0.473	0.354	0.872		1.16	0.809	0.105	0.0898	0.0968	0.0931	0.0733
COR-L23	0.377	0.335	0.208	0.401	0.279	0.622	0.613	0.698	0.478	0.459	0.706	0.693	0.687	0.78	0.18	0.185	0.237	0.287	0.19
NCI-H2009	0.859	0.674	0.724	0.584	0.555	1.04	1.02	1.11	0.953	0.831	1.16	1.1	1.02	1.11	0.759	0.621	0.717	0.755	0.444
NCI-H1755	0.874	0.849	0.883	0.761	0.486	0.828	0.819	0.966	0.801	0.578	0.906	0.83	0.869	0.791	0.532	0.559	0.524	0.484	0.409
